# Results: ChEMBL document CHEMBL1150961, “Tenuecyclamides A-D, cyclic hexapeptides from the cyanobacterium Nostoc spongiaeforme var. tenue” (1998)
# System: Paracentrotus lividus
# Assay: Inhibition of sea urchin egg fertilization by sea urchin sperm assessed as inhibition of divided eggs
# Assay type: functional
row,Compound,ED100
1,Cc1oc2nc1C(=O)NC(C)c1nc(cs1)C(=O)NC(C)c1nc(cs1)C(=O)N[C@H]2C (stereo partly drawn) [TENUECYCLAMIDE A],10.8 µM
2,CSCC[C@@H]1NC(=O)c2csc(n2)CNC(=O)c2nc(oc2C)[C@H](C)NC(=O)c2csc1n2 [TENUECYCLAMIDE C],9 µM
3,Cc1oc2nc1C(=O)NCc1nc(cs1)C(=O)N[C@@H](CC[S+](C)[O-])c1nc(cs1)C(=O)N[C@H]2C (stereo partly drawn) [TENUECYCLAMIDE D],19.1 µM
